Results: ChEMBL document CHEMBL1909046, “DrugMatrix in vitro pharmacology data”

Columns and labels:
Cytochrome P450 2A6 = target: T1, Cytochrome P450 2A6 (Homo sapiens, UniProt P11509); conditions: bti-tn-5b1-4; further: in other assays of this panel Not Active means under 50% inhibition at 10 µM
T1 sequence (P11509 whole entry): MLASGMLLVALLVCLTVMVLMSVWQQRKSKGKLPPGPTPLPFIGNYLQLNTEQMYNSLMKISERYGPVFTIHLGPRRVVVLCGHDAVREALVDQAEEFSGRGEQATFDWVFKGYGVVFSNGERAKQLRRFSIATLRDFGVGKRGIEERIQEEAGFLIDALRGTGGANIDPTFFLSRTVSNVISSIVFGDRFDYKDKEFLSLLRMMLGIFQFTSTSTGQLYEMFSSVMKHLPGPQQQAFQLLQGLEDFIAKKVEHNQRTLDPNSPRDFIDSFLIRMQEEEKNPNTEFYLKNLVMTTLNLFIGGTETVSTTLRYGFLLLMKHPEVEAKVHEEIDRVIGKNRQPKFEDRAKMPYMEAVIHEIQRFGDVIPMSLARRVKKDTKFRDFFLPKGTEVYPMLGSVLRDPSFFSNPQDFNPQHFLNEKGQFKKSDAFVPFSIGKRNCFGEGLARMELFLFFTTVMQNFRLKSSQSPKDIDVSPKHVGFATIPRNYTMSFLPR

[1] = target: Sodium-dependent noradrenaline transporter (Homo sapiens, UniProt P23975); experiment: DRUGMATRIX: Norepinephrine Transporter radioligand binding (ligand: [125I] RTI-55); type: cell membranes, MDCK, Membrane; conditions: Not Active = under 50% inhibition at 10 µM
Sequence of Sodium-dependent noradrenaline transporter (P23975 whole entry): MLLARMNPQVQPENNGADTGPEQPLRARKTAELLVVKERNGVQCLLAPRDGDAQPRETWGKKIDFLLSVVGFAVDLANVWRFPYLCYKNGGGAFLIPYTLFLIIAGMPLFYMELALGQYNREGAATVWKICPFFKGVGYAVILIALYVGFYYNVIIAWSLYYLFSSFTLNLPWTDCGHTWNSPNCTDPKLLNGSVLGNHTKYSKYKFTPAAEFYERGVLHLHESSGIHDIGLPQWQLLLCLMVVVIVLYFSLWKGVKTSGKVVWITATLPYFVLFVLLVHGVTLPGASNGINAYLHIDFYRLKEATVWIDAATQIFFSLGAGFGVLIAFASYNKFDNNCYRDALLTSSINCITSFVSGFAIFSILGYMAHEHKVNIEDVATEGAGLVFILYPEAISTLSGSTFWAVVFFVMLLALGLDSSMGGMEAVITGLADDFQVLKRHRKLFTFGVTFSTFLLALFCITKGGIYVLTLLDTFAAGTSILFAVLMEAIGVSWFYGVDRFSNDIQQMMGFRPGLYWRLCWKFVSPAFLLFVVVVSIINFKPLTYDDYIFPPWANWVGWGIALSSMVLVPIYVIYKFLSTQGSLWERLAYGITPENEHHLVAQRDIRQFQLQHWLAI

[2] = target: T2, Amine oxidase [flavin-containing] A (Homo sapiens, UniProt P21397); experiment: DRUGMATRIX: Monoamine Oxidase MAO-A enzyme inhibition (substrate: Kynuramine); design: species or system BTI-TN-5B1-4; conditions: Not Active = under 50% inhibition at 10 µM
T2 sequence (P21397 whole entry): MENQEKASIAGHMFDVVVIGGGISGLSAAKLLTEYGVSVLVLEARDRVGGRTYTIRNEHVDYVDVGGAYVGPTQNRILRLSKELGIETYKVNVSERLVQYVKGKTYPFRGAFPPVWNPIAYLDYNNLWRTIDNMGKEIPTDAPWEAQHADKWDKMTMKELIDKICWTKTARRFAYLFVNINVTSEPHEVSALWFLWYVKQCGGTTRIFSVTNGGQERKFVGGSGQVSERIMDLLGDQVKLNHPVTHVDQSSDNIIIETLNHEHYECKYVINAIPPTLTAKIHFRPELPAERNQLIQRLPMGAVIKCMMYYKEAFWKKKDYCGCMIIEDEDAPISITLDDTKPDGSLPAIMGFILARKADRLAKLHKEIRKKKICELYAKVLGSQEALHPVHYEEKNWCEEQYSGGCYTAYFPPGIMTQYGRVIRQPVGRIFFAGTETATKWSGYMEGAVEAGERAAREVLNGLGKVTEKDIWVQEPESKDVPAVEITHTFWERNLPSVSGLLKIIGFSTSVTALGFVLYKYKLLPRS

[3] = target: Sigma non-opioid intracellular receptor 1 (Homo sapiens, UniProt Q99720); experiment: DRUGMATRIX: Sigma1 radioligand binding (ligand: [3H] Haloperidol); type: cell membranes, Jurkat, Membrane; conditions: jurkat; Not Active = under 50% inhibition at 10 µM
Sequence of Sigma non-opioid intracellular receptor 1 (Q99720 whole entry): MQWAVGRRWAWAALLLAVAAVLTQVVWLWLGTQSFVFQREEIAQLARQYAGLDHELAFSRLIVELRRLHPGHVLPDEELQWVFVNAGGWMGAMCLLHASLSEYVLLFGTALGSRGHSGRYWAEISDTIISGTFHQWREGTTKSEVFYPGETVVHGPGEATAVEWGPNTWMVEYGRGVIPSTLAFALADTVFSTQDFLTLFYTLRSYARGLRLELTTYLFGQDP

[4] = target: Aldo-keto reductase family 1 member B1 (Rattus norvegicus, UniProt P07943); experiment: biochemical; type: tissue-based, Lens of camera-type eye;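 further: inhibition of aldose reductase enzyme activity, measured with DL-glyceraldehyde as the substrate; in other assays of this panel Not Active means under 50% inhibition at 10 µM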
[5] = target: T3, Cholecystokinin receptor type A (Homo sapiens, UniProt P32238); type: cell membranes, Membrane; conditions: 1321-n1; further: in other assays of this panel Not Active means under 50% inhibition at 10 µM
T3 sequence (P32238 whole entry): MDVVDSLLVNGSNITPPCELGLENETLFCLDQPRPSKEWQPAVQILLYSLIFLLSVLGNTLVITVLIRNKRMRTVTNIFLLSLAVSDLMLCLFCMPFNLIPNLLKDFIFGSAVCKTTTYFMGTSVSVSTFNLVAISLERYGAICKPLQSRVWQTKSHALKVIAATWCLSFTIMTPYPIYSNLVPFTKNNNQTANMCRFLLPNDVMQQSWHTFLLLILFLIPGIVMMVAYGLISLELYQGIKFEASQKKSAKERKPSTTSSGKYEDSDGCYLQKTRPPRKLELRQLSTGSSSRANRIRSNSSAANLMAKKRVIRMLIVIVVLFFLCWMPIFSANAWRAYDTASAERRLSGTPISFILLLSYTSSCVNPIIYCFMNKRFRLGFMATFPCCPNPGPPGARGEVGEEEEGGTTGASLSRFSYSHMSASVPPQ

[6] = target: Receptor tyrosine-protein kinase erbB-2 (Homo sapiens, UniProt P04626); type: cell-based; conditions: insect cells;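 further: inhibition of HER2 kinase enzyme activity, measured with Poly(Glu:Tyr) as the phosphorylation substrate; in other assays of this panel Not Active means under 50% inhibition at 10 µM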

Compound	IC50 (Cytochrome P450 2A6)	Ki (Cytochrome P450 2A6)	IC50 ([1]; mdck)	Ki ([1]; mdck)	IC50 ([2]; bti-tn-5b1-4)	Ki ([2]; bti-tn-5b1-4)	IC50 [3]	Ki [3]	IC50 [4]	Ki [4]	IC50 [5]	Ki [5]	IC50 [6]	Ki [6]	IC50 ([1]; read-out: IC50)	Ki ([1]; read-out: Ki)	IC50 ([2]; read-out: IC50)
COPPER(II) OXIDE	Not Active	Not Active	Not Active	Not Active	Not Active	Not Active	Not Active	Not Active	Not Active	Not Active	Not Active	Not Active	Not Active	Not Active			
Cl.NC[C@H]1CC[C@H](C(=O)Oc2ccc(CCC(=O)O)cc2)CC1 [CETRAXATE HYDROCHLORIDE]	Not Active	Not Active	Not Active		Not Active		Not Active		Not Active		Not Active		Not Active				
COc1ccccc1OCCNCC(O)COc1cccc2[nH]c3ccccc3c12 (configuration not stated) [CARVEDILOL]	Not Active	Not Active			Not Active		Not Active		Not Active		Not Active		Not Active		538 nM	533 nM	
C[C@H](C(=O)O)c1ccc2oc(-c3ccc(F)cc3)nc2c1 [FLUNOXAPROFEN]	Not Active	Not Active	Not Active		Not Active		Not Active		Not Active		Not Active		Not Active				
CCN1CCN(c2cc3c(cc2F)c(=O)c(C(=O)O)cn3C2CC2)CC1 [ENROFLOXACIN]	Not Active	Not Active	Not Active		Not Active		Not Active		Not Active		Not Active		Not Active				
C[C@]12CC[C@@H](O)C[C@@H]1CC[C@@H]1[C@@H]2CC[C@]2(C)C(=O)CC[C@@H]12 [ANDROSTERONE]	Not Active	Not Active	Not Active		Not Active		Not Active		Not Active		Not Active		Not Active				
O=C(NCCN1CCOCC1)c1ccc(Cl)cc1 [MOCLOBEMIDE]	Not Active	Not Active	Not Active		Not Active		Not Active		Not Active		Not Active		Not Active				
NC(=O)CN1CCCC1=O	Not Active	Not Active	Not Active		Not Active		Not Active		Not Active		Not Active		Not Active				
Oc1ccccc1 [PHENOL]	Not Active	Not Active	Not Active		Not Active		Not Active		Not Active		Not Active		Not Active				
CCO [ALCOHOL]	Not Active	Not Active	Not Active		Not Active		Not Active		Not Active		Not Active		Not Active				
COc1ccc(Cl)cc1C(=O)NCCc1ccc(S(=O)(=O)NC(=O)NC2CCCCC2)cc1 [GLYBURIDE]	Not Active	Not Active	Not Active		Not Active		Not Active		Not Active		Not Active		Not Active				
OC[C@H]1O[C@@H]2O[C@H]3[C@H](O)[C@@H](O)[C@@H](O[C@H]4[C@H](O)[C@@H](O)[C@@H](O[C@H]5[C@H](O)[C@@H](O)[C@@H](O[C@H]6[C@H](O)[C@@H](O)[C@@H](O[C@H]7[C@H](O)[C@@H](O)[C@@H](O[C@H]8[C@H](O)[C@@H](O)[C@@H](O[C@H]1[C@H](O)[C@H]2O)O[C@@H]8CO)O[C@@H]7CO)O[C@@H]6CO)O[C@@H]5CO)O[C@@H]4CO)O[C@@H]3CO [BETADEX]	Not Active	Not Active	Not Active		Not Active		Not Active		Not Active		Not Active		Not Active				
NC(N)=Nc1nc(CSCCC(N)=NS(N)(=O)=O)cs1 [FAMOTIDINE]	Not Active	Not Active	Not Active		Not Active		Not Active		Not Active		Not Active		Not Active				
COc1cc(NC(C)CCCN)c2ncccc2c1 (configuration not stated) [PRIMAQUINE]	Not Active	Not Active	Not Active		Not Active		Not Active		Not Active		Not Active		Not Active				
Cc1c(N)nc([C@H](CC(N)=O)NC[C@H](N)C(N)=O)nc1C(=O)N[C@H](C(=O)N[C@H](C)[C@@H](O)[C@H](C)C(=O)N[C@H](C(=O)NCCc1nc(-c2nc(C(=O)NCCC[S+](C)C)cs2)cs1)[C@@H](C)O)[C@@H](O[C@@H]1O[C@@H](CO)[C@@H](O)[C@H](O)[C@@H]1O[C@H]1O[C@H](CO)[C@@H](O)[C@H](OC(N)=O)[C@@H]1O)c1c[nH]cn1.[Br-] [BLEOMYCIN A2]	Not Active	Not Active	Not Active		Not Active		Not Active		Not Active		Not Active		Not Active				
c1ccc2c(c1)Nc1ccccc1S2 [PHENOTHIAZINE]	Not Active	Not Active					Not Active		Not Active		Not Active		Not Active		461 nM	457 nM	592 nM
OC[C@H]1OC2C3[C@@H](CO)OC(O[C@H]4[C@H](O)[C@@H](O)[C@@H](O[C@H]5[C@H](O)[C@@H](O)[C@@H](O[C@H]6[C@H](O)[C@@H](O)[C@@H](O[C@H]7[C@H](O)[C@@H](O)[C@@H](O[C@H]8[C@H](O)[C@@H](O)[C@@H](O[C@H]9[C@H](O)[C@@H](O)C(OC1[C@H](O)[C@H]2O)O[C@@H]9CO)O[C@@H]8CO)O[C@@H]7CO)O[C@@H]6CO)O[C@@H]5CO)O[C@@H]4CO)[C@H](O)[C@H]3O	Not Active	Not Active	Not Active		Not Active		Not Active		Not Active		Not Active		Not Active				
CC(C)Cc1ccc([C@H](C)C(=O)O)cc1 [DEXIBUPROFEN]	Not Active	Not Active	Not Active		Not Active		Not Active		Not Active		Not Active		Not Active				
CC(N)Cc1c[nH]c2ccc(OCc3cccs3)cc12 (configuration not stated) [BW-723C86]	Not Active	Not Active			Not Active		Not Active		Not Active		Not Active		Not Active		3630 nM	3600 nM	
CC(=O)[C@]1(O)Cc2c(O)c3c(c(O)c2[C@@H](O[C@H]2C[C@H](N)[C@H](O)[C@H](C)O2)C1)C(=O)c1ccccc1C3=O [IDARUBICIN]	Not Active	Not Active	Not Active		Not Active		Not Active		Not Active		Not Active		Not Active				
NC(=O)NC(=O)Cc1ccccc1 [PHENACEMIDE]	Not Active	Not Active	Not Active		Not Active		Not Active		Not Active		Not Active		Not Active				
